PubChem BioAssay AID1963986 (Molecular Pharmacology Branch, DTP, NCI, 2024)

System: 171881-019-R-J1-PDC tumor spheroid viability
Test: Anticancer human tumor 171881-019-R-J1-PDC patient-derived invasive breast carcinoma cell line growth inhibition [PI3K]
Conditions: spheroids with HUVEC and MSC; for IC50: curve of first compound; for viability, T/C: stronger effect = lower value
Summary of the method: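 Spheroid viability read-out. Co-cultures contained the tumor line plus HUVEC and human MSCs. Each agent was paired with a PI3K inhibitor (inavolisib, alpelisib, duvelisib, copanlisib) across half-log dilutions starting at clinical Cmax, or at 10 microM when Cmax was unknown.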

[1] = second compound 0.0316 µM, first compound 0.0316 µM
[2] = second compound 0.0316 µM, first compound 0.1 µM
[3] = second compound 0.0316 µM, first compound 0.316 µM
[4] = second compound 0.0316 µM, first compound 1 µM
[5] = second compound 0.0316 µM, first compound 3.16 µM
[6] = second compound 0.0316 µM, first compound 10 µM
[7] = second compound 0.1 µM, first compound 0.0316 µM
[8] = second compound 0.1 µM, first compound 0.1 µM
[9] = second compound 0.1 µM, first compound 0.316 µM
[10] = second compound 0.1 µM, first compound 1 µM
[11] = second compound 0.1 µM, first compound 3.16 µM
[12] = second compound 0.1 µM, first compound 10 µM
[13] = second compound 0.316 µM, first compound 0.0316 µM
[14] = second compound 0.316 µM, first compound 0.1 µM
[15] = second compound 0.316 µM, first compound 0.316 µM
[16] = second compound 0.316 µM, first compound 1 µM
[17] = second compound 0.316 µM, first compound 3.16 µM
[18] = second compound 0.316 µM, first compound 10 µM
[19] = second compound 1 µM, first compound 0.0316 µM
[20] = second compound 1 µM, first compound 0.1 µM
[21] = second compound 1 µM, first compound 0.316 µM
[22] = second compound 1 µM, first compound 1 µM
[23] = second compound 1 µM, first compound 3.16 µM
[24] = second compound 1 µM, first compound 10 µM
[25] = second compound 3.16 µM, first compound 0.0316 µM
[26] = second compound 3.16 µM, first compound 0.1 µM
[27] = second compound 3.16 µM, first compound 0.316 µM
[28] = second compound 3.16 µM, first compound 1 µM
[29] = second compound 3.16 µM, first compound 3.16 µM
[30] = second compound 3.16 µM, first compound 10 µM
[31] = second compound 10 µM, first compound 0.0316 µM
[32] = second compound 10 µM, first compound 0.1 µM
[33] = second compound 10 µM, first compound 0.316 µM
[34] = second compound 10 µM, first compound 1 µM
[35] = second compound 10 µM, first compound 3.16 µM
[36] = second compound 10 µM, first compound 10 µM
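Note: spheroids exposed to compound for 7 days before viability read.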
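Throughout, for viability, T/C: 100% = DMSO vehicle-treated spheroids.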

`C#Cc1c(F)ccc2cc(O)cc(-c3ncc4c(N5CC6CCC(C5)N6)nc(OCC56CCCN5CC(F)C6)nc4c3F)c12` (stereo unspecified) + CC(Nc1ncnc2nc[nH]c12)c1cc2cccc(Cl)c2c(=O)n1-c1ccccc1 was tested, and the IC50 (second compound 0.0316 µM) was 0.562 µM, the IC50 (second compound 0.1 µM) was 0.655 µM and the IC50 (second compound 0.316 µM) was 0.44 µM. For the same molecule, the IC50 (second compound 1 µM) was 0.314 µM, the IC50 (second compound 3.16 µM) was 0.108 µM and the IC50 (second compound 10 µM) was < 0.0316 µM. For the same molecule, the viability, T/C [1] was 89.6%, the viability, T/C [2] was 78.5% and the viability, T/C [3] was 54%. It also gave a viability, T/C [4] of 44.5%, a viability, T/C [5] of 35.7% and a viability, T/C [6] of 29.4%. It also gave a viability, T/C [7] of 78.6%, a viability, T/C [8] of 80.1% and a viability, T/C [9] of 57%. It also gave a viability, T/C [10] of 43.9%, a viability, T/C [11] of 34.7% and a viability, T/C [12] of 24.3%. For the same molecule, the viability, T/C [13] was 83.3%, the viability, T/C [14] was 71% and the viability, T/C [15] was 51.6%. For the same molecule, the viability, T/C [16] was 41.8%, the viability, T/C [17] was 29.7% and the viability, T/C [18] was 23.2%. For the same molecule, the viability, T/C [19] was 76%, the viability, T/C [20] was 68.8% and the viability, T/C [21] was 47.9%. For the same molecule, the viability, T/C [22] was 34.3%, the viability, T/C [23] was 26.6% and the viability, T/C [24] was 19.7%. It also gave a viability, T/C [25] of 72.2%, a viability, T/C [26] of 50.1% and a viability, T/C [27] of 37.1%. The viability, T/C [28] was 23.9%, the viability, T/C [29] was 18.2% and the viability, T/C [30] was 13.4%. The viability, T/C [31] was 49.8%, the viability, T/C [32] was 32.6% and the viability, T/C [33] was 21.5%. It also gave a viability, T/C [34] of 16.9%, a viability, T/C [35] of 10.3% and a viability, T/C [36] of 6.78%.

With `CC(Cn1ccc(-c2ccc(C#N)c(Cl)c2)n1)NC(=O)c1cc(C(C)O)[nH]n1` (stereo unspecified) + CC(Nc1ncnc2nc[nH]c12)c1cc2cccc(Cl)c2c(=O)n1-c1ccccc1 the IC50 (second compound 0.0316 µM) was > 10 µM, the IC50 (second compound 0.1 µM) was > 10 µM and the IC50 (second compound 0.316 µM) was > 10 µM. For the same molecule, the IC50 (second compound 1 µM) was > 10 µM, the IC50 (second compound 3.16 µM) was > 10 µM and the IC50 (second compound 10 µM) was 5.12 µM. For the same molecule, the viability, T/C [1] was 85.5%, the viability, T/C [2] was 85% and the viability, T/C [3] was 93%. For the same molecule, the viability, T/C [4] was 70.3%, the viability, T/C [5] was 68.9% and the viability, T/C [6] was 59.1%. For the same molecule, the viability, T/C [7] was 80.6%, the viability, T/C [8] was 105% and the viability, T/C [9] was 87.8%. The viability, T/C [10] was 77.6%, the viability, T/C [11] was 81% and the viability, T/C [12] was 62.1%. It also gave a viability, T/C [13] of 96.3%, a viability, T/C [14] of 94.9% and a viability, T/C [15] of 88.5%. For the same molecule, the viability, T/C [16] was 91.2%, the viability, T/C [17] was 82% and the viability, T/C [18] was 66.7%. For the same molecule, the viability, T/C [19] was 104%, the viability, T/C [20] was 93.8% and the viability, T/C [21] was 87.8%. The viability, T/C [22] was 94.9%, the viability, T/C [23] was 92% and the viability, T/C [24] was 64.7%. For the same molecule, the viability, T/C [25] was 86.7%, the viability, T/C [26] was 93.4% and the viability, T/C [27] was 83.6%. For the same molecule, the viability, T/C [28] was 82.8%, the viability, T/C [29] was 85% and the viability, T/C [30] was 58.9%. It also gave a viability, T/C [31] of 60.3%, a viability, T/C [32] of 59.5% and a viability, T/C [33] of 55.9%. It also gave a viability, T/C [34] of 56.2%, a viability, T/C [35] of 57.4% and a viability, T/C [36] of 40.1%.

With `CC1(C)CCC(Nc2ncc(C(F)(F)F)c(-c3c[nH]c4c(P(C)(C)=O)c(C#N)ccc34)n2)CN1` (stereo unspecified) + CC(Nc1ncnc2nc[nH]c12)c1cc2cccc(Cl)c2c(=O)n1-c1ccccc1 the IC50 (second compound 0.0316 µM) was 5.91 µM, the IC50 (second compound 0.1 µM) was 5.62 µM and the IC50 (second compound 0.316 µM) was 5.58 µM. For the same molecule, the IC50 (second compound 1 µM) was 5.22 µM, the IC50 (second compound 3.16 µM) was 4.43 µM and the IC50 (second compound 10 µM) was < 0.0316 µM. For the same molecule, the viability, T/C [1] was 68.3%, the viability, T/C [2] was 77.2% and the viability, T/C [3] was 71.8%. The viability, T/C [4] was 79.3%, the viability, T/C [5] was 84.1% and the viability, T/C [6] was 28.1%. For the same molecule, the viability, T/C [7] was 65.5%, the viability, T/C [8] was 74.5% and the viability, T/C [9] was 73.1%. The viability, T/C [10] was 81.5%, the viability, T/C [11] was 88.8% and the viability, T/C [12] was 23.3%. For the same molecule, the viability, T/C [13] was 65.5%, the viability, T/C [14] was 75.1% and the viability, T/C [15] was 74.1%. It also gave a viability, T/C [16] of 83.2%, a viability, T/C [17] of 81.9% and a viability, T/C [18] of 23.4%. The viability, T/C [19] was 69.1%, the viability, T/C [20] was 69% and the viability, T/C [21] was 73.8%. The viability, T/C [22] was 78.6%, the viability, T/C [23] was 73% and the viability, T/C [24] was 20.6%. The viability, T/C [25] was 66%, the viability, T/C [26] was 65% and the viability, T/C [27] was 67.9%. It also gave a viability, T/C [28] of 71.4%, a viability, T/C [29] of 65.3% and a viability, T/C [30] of 12.7%. It also gave a viability, T/C [31] of 51%, a viability, T/C [32] of 47% and a viability, T/C [33] of 45.9%. The viability, T/C [34] was 48.5%, the viability, T/C [35] was 41.4% and the viability, T/C [36] was 3.63%.
